{"source": "patent US20240216438A1", "about": "“COMPOSITION CONTAINING FUNCTION-REINFORCED STEM CELL FOR PREVENTION OR TREATMENT OF ATOPIC DERMATITIS” (SCM LIFESCIENCE CO., LTD., priority 2021, published 2024)", "system": "mesenchymal stem cells", "test": "qRT-PCR of IDO and TSG6 expression in mesenchymal stem cells treated with priming candidates", "assay_type": "cell-based", "settings": "for expression of IDO and TSG6: compared to untreated control group 0, Table 1 groups, 24 hours; for lowest effective concentrations capable of inducing significantly increased expression of both TSG6 and IDO: single substance, 24 hours treatment, qRT-PCR", "experimental": "In a 37° C. and 5% CO2 incubator, mesenchymal stem cells in a storage state (LN2 tank storage) were thawed and cultured, and at this time, the cells were cultured in a medium (DMEM, alpha-MEM) containing 10% FBS or 4% hPL until proliferated to a cell confluence of about 80%. The cultured mesenchymal stem cells were seeded in a 100 mm dish, and treated with candidate substances for reinforcing the functions of the mesenchymal stem cells for 24 hours, and then the concentrations of primary candidate substances for reinforcing the functions were set.\nTNF-α and IFN-γIFN-α were selected as the primary candidate substances, and in order to confirm the lowest effective concentration capable of increasing the expression of TNFα-stimulated gene-6 (TSG6) and indoleamine 2,3-dioxygenase (IDO) to confirm the reinforced functions, the stem cells were treated with 5, 10, and 20 ng/ml of TNF-α, 5, 10, and 20 ng/ml of IFN-γ, and 10, 20, and 40 ng/ml of IFN-α, respectively, and changes in expression of TSG6 and IDO were confirmed.\nThe IDO was known as an immunomodulatory factor that inhibited the proliferation of immune cells such as T cells by converting tryptophan, which was essential for T cell proliferation, into kynurenine, and the TSG6 was known as an anti-inflammatory regulator secreted by mesenchymal stem cells. After culturing the stem cells, total RNA was isolated using TRIzol (Invitrogen), and cDNA was synthesized from total RNA using PrimeScript™ RT reagent Kit with gDNA Eraser (TaKaRa), and qRT-PCR was performed. The results of TSG6 and IDO according to the concentration of each candidate substance were illustrated in FIGS. 1, 2 and 3.\nThrough Example 1, candidate substances and concentration combinations thereof selected to search for more functionally reinforced compositions based on the candidate substances and the lowest effective concentrations confirmed to induce the reinforced functions of stem cells were set as shown in Table 1. Mesenchymal stem cells were treated with the candidate combinations described in Table 1 below for 24 hours, and the stem cells were cultured as in Example 1, and then total RNA was isolated using TRIzol (Invitrogen). Thereafter, qRT-PCR was performed by synthesizing cDNA from total RNA using the PrimeScript™ RT reagent Kit with gDNA Eraser (TaKaRa).\nVitamins were known to improve the proliferative ability of stem cells and maintain the stemness of stem cells when added during a stem cell culture process. Accordingly, various vitamins were treated in the stem cell culture process, and experiments were performed to confirm whether or not vitamins could achieve anti-inflammatory and immune function reinforcing effects of stem cells. Specifically, the stem cells were treated with various types of vitamins shown in Table 2 according to the method described in Example 1, and the results of confirming changes in expression of IDO and TSG6 according to treatment with each candidate substance were illustrated in FIG. 5.", "data": [{"substance": "IFN-γ: priming candidate substance; Table 1 group 2, 10 ng/ml", "values": [{"measurement": "expression of IDO and TSG6", "value": "increased expression"}, {"measurement": "lowest effective concentrations capable of inducing significantly increased expression of both TSG6 and IDO", "value": 10, "unit": "ng/mL"}]}, {"substance": "IFN-α", "values": [{"measurement": "expression of IDO and TSG6", "value": "increased expression"}, {"measurement": "lowest effective concentrations capable of inducing significantly increased expression of both TSG6 and IDO", "value": 20, "unit": "ng/mL"}]}, {"substance": "TNF-α", "values": [{"measurement": "expression of IDO and TSG6", "value": "increased expression"}, {"measurement": "lowest effective concentrations capable of inducing significantly increased expression of both TSG6 and IDO", "value": 10, "unit": "ng/mL"}]}]}
